Results: patent US20040013730A1, “Non-hormonal vaginal contraceptive” (priority 2003, published 2004)

Experiments:
human sperm = assay: Efficacy of metal salts, albumin and dextran on motility of human sperm in vitro
human cervical mucus = assay: Cervical mucus score (WHO): viscosity, ferning, spinnbarkeit, cellularity, pH; conditions: for TOTAL cervical mucus score: pH not included
[1] = ascorbic acid 0.31%, fourth sample (undated)
[2] = ascorbic acid 0.31%, sample Jun. 22, 2000
[3] = ascorbic acid 0.31%, sample Jun. 23, 2000
[4] = ascorbic acid 0.31%, third sample (undated)
[5] = ascorbic acid 0.63%, fourth sample (undated)
[6] = ascorbic acid 0.63%, sample Jun. 22, 2000
[7] = ascorbic acid 0.63%, sample Jun. 23, 2000
[8] = ascorbic acid 0.63%, third sample (undated)
[9] = ascorbic acid 1%, fourth sample (undated)
[10] = ascorbic acid 1%, sample Jun. 22, 2000
[11] = ascorbic acid 1%, sample Jun. 23, 2000
[12] = ascorbic acid 1%, third sample (undated)
[13] = ascorbic acid 1.25%, fourth sample (undated)
[14] = ascorbic acid 1.25%, sample Jun. 22, 2000
[15] = ascorbic acid 1.25%, sample Jun. 23, 2000
[16] = ascorbic acid 1.25%, third sample (undated)
[17] = ascorbic acid 2.50%, fourth sample (undated)
[18] = ascorbic acid 2.50%, sample Jun. 22, 2000
[19] = ascorbic acid 2.50%, sample Jun. 23, 2000
[20] = ascorbic acid 2.50%, third sample (undated)
[21] = ascorbic acid 5%, fourth sample (undated)
[22] = ascorbic acid 5%, sample Jun. 22, 2000
[23] = ascorbic acid 5%, sample Jun. 23, 2000
[24] = ascorbic acid 5%, third sample (undated)
[25] = ascorbic acid 10%, fourth sample (undated)
[26] = ascorbic acid 10%, sample Jun. 22, 2000
[27] = ascorbic acid 10%, sample Jun. 23, 2000
[28] = ascorbic acid 10%, third sample (undated)

albumin
sperm motility (human sperm; 10% albumin): decreased sperm motility almost close to that of 12.5 mM concentration of ferrous gluconate
sperm completely immobilized (human sperm; 20% albumin): ~97%
sperm completely immobilized (human sperm; 40% albumin): ~97%
spermiostatic effects (human sperm; lower concentrations of albumin and dextran): not significant

O=C1O[C@H]([C@@H](O)CO)C(O)=C1O [ascorbic acid, L-ascorbic acid]
overall viscosity of the mucus (human cervical mucus; L-ascorbic acid from 0.31% to a range of 1-2.5%): increased in direct relationship with increasing concentrations
Cellularity (cervical mucus score) (human cervical mucus; [1]): 0
Ferning (cervical mucus score) (human cervical mucus; [1]): 0
Spinnbarkiet (cervical mucus score) (human cervical mucus; [1]): 1 ± .35
Viscosity (cervical mucus score) (human cervical mucus; [1]): 2 ± .79
TOTAL cervical mucus score (human cervical mucus; [1]): 3.2
Cellularity (cervical mucus score) (human cervical mucus; [2]): 2 ± .86
Ferning (cervical mucus score) (human cervical mucus; [2]): 2 ± .86
Spinnbarkiet (cervical mucus score) (human cervical mucus; [2]): 0 (less than 1 cm)
Viscosity (cervical mucus score) (human cervical mucus; [2]): 3 ± .79
TOTAL cervical mucus score (human cervical mucus; [2]): 7.3
Cellularity (cervical mucus score) (human cervical mucus; [3]): 2 ± .58
Ferning (cervical mucus score) (human cervical mucus; [3]): 0
Spinnbarkeit (cervical mucus score) (human cervical mucus; [3]): 1 ± .35
Viscosity (cervical mucus score) (human cervical mucus; [3]): 3 ± .79
TOTAL cervical mucus score (human cervical mucus; [3]): 6.2
Cellularity (cervical mucus score) (human cervical mucus; [4]): 1 ± .58
Ferning (cervical mucus score) (human cervical mucus; [4]): 0
Spinnbarkeit (cervical mucus score) (human cervical mucus; [4]): 0 (less than 1 cm)
Viscosity (cervical mucus score) (human cervical mucus; [4]): 2 ± .79
TOTAL cervical mucus score (human cervical mucus; [4]): 3.15
Cellularity (cervical mucus score) (human cervical mucus; [5]): 0
Ferning (cervical mucus score) (human cervical mucus; [5]): 3 ± .86
Spinnbarkiet (cervical mucus score) (human cervical mucus; [5]): 1 ± .49
Viscosity (cervical mucus score) (human cervical mucus; [5]): 3 ± .81
TOTAL cervical mucus score (human cervical mucus; [5]): 7.2
Cellularity (cervical mucus score) (human cervical mucus; [6]): 0
Ferning (cervical mucus score) (human cervical mucus; [6]): 0
Spinnbarkiet (cervical mucus score) (human cervical mucus; [6]): 1 ± .49
Viscosity (cervical mucus score) (human cervical mucus; [6]): 1 ± .81
TOTAL cervical mucus score (human cervical mucus; [6]): 2.3
Cellularity (cervical mucus score) (human cervical mucus; [7]): 0
Ferning (cervical mucus score) (human cervical mucus; [7]): 0
Spinnbarkeit (cervical mucus score) (human cervical mucus; [7]): 1 ± .49
Viscosity (cervical mucus score) (human cervical mucus; [7]): 2 ± .81
TOTAL cervical mucus score (human cervical mucus; [7]): 3.2
Cellularity (cervical mucus score) (human cervical mucus; [8]): 1 ± .61
Ferning (cervical mucus score) (human cervical mucus; [8]): 0
Spinnbarkeit (cervical mucus score) (human cervical mucus; [8]): 1 ± .49
Viscosity (cervical mucus score) (human cervical mucus; [8]): 1 ± .81
TOTAL cervical mucus score (human cervical mucus; [8]): 3.15
Cellularity (cervical mucus score) (human cervical mucus; [9]): 0
Ferning (cervical mucus score) (human cervical mucus; [9]): 3 ± .82
Spinnbarkiet (cervical mucus score) (human cervical mucus; [9]): 1 ± .51
Viscosity (cervical mucus score) (human cervical mucus; [9]): 2 ± .75
TOTAL cervical mucus score (human cervical mucus; [9]): 6.2
Cellularity (cervical mucus score) (human cervical mucus; [10]): 2 ± .82
Ferning (cervical mucus score) (human cervical mucus; [10]): 2 ± .82
Spinnbarkiet (cervical mucus score) (human cervical mucus; [10]): 1 ± .51
Viscosity (cervical mucus score) (human cervical mucus; [10]): 1 ± .75
TOTAL cervical mucus score (human cervical mucus; [10]): 6.3
Cellularity (cervical mucus score) (human cervical mucus; [11]): 0
Ferning (cervical mucus score) (human cervical mucus; [11]): 0
Spinnbarkeit (cervical mucus score) (human cervical mucus; [11]): 1 ± .51
Viscosity (cervical mucus score) (human cervical mucus; [11]): 2 ± .75
TOTAL cervical mucus score (human cervical mucus; [11]): 3.2
Cellularity (cervical mucus score) (human cervical mucus; [12]): 0
Ferning (cervical mucus score) (human cervical mucus; [12]): 0
Spinnbarkeit (cervical mucus score) (human cervical mucus; [12]): 1 ± .51
Viscosity (cervical mucus score) (human cervical mucus; [12]): 2 ± .75
TOTAL cervical mucus score (human cervical mucus; [12]): 3.15
Cellularity (cervical mucus score) (human cervical mucus; [13]): 1 ± .53
Ferning (cervical mucus score) (human cervical mucus; [13]): 2 ± 1.13
Spinnbarkiet (cervical mucus score) (human cervical mucus; [13]): 1 ± 51
Viscosity (cervical mucus score) (human cervical mucus; [13]): 3 ± .95
TOTAL cervical mucus score (human cervical mucus; [13]): 7.2
Cellularity (cervical mucus score) (human cervical mucus; [14]): 0
Ferning (cervical mucus score) (human cervical mucus; [14]): 0
Spinnbarkiet (cervical mucus score) (human cervical mucus; [14]): 1 ± .51
Viscosity (cervical mucus score) (human cervical mucus; [14]): 1 ± .95
TOTAL cervical mucus score (human cervical mucus; [14]): 2.3
Cellularity (cervical mucus score) (human cervical mucus; [15]): 0
Ferning (cervical mucus score) (human cervical mucus; [15]): 0
Spinnbarkeit (cervical mucus score) (human cervical mucus; [15]): 1 ± .51
Viscosity (cervical mucus score) (human cervical mucus; [15]): 3 ± .95
TOTAL cervical mucus score (human cervical mucus; [15]): 4.2
Cellularity (cervical mucus score) (human cervical mucus; [16]): 1 ± .53
Ferning (cervical mucus score) (human cervical mucus; [16]): 0
Spinnbarkeit (cervical mucus score) (human cervical mucus; [16]): 0 (less than 1 cm)
Viscosity (cervical mucus score) (human cervical mucus; [16]): 1 ± .95
TOTAL cervical mucus score (human cervical mucus; [16]): 2.15
Cellularity (cervical mucus score) (human cervical mucus; [17]): 1 ± .49
Ferning (cervical mucus score) (human cervical mucus; [17]): 1 ± .82
Spinnbarkiet (cervical mucus score) (human cervical mucus; [17]): 1 ± .14
Viscosity (cervical mucus score) (human cervical mucus; [17]): 2 ± .61
TOTAL cervical mucus score (human cervical mucus; [17]): 5.2
Cellularity (cervical mucus score) (human cervical mucus; [18]): 0
Ferning (cervical mucus score) (human cervical mucus; [18]): 0
Spinnbarkiet (cervical mucus score) (human cervical mucus; [18]): 1 ± .14
Viscosity (cervical mucus score) (human cervical mucus; [18]): 2 ± .61
TOTAL cervical mucus score (human cervical mucus; [18]): 3.3
Cellularity (cervical mucus score) (human cervical mucus; [19]): 1 ± .49
Ferning (cervical mucus score) (human cervical mucus; [19]): 0
Spinnbarkeit (cervical mucus score) (human cervical mucus; [19]): 1 ± .14
Viscosity (cervical mucus score) (human cervical mucus; [19]): 0
TOTAL cervical mucus score (human cervical mucus; [19]): 2.2
Cellularity (cervical mucus score) (human cervical mucus; [20]): 1 ± .49
Ferning (cervical mucus score) (human cervical mucus; [20]): 0
Spinnbarkeit (cervical mucus score) (human cervical mucus; [20]): 0 (less than 1 cm)
Viscosity (cervical mucus score) (human cervical mucus; [20]): 1 ± .61
TOTAL cervical mucus score (human cervical mucus; [20]): 2.15
Cellularity (cervical mucus score) (human cervical mucus; [21]): 1 ± .66
Ferning (cervical mucus score) (human cervical mucus; [21]): 0
Spinnbarkiet (cervical mucus score) (human cervical mucus; [21]): 1 ± .35
Viscosity (cervical mucus score) (human cervical mucus; [21]): 2 ± .52
TOTAL cervical mucus score (human cervical mucus; [21]): 4.2
Cellularity (cervical mucus score) (human cervical mucus; [22]): 0
Ferning (cervical mucus score) (human cervical mucus; [22]): 0
Spinnbarkiet (cervical mucus score) (human cervical mucus; [22]): 1 ± .35
Viscosity (cervical mucus score) (human cervical mucus; [22]): 2 ± .52
TOTAL cervical mucus score (human cervical mucus; [22]): 3.3
Cellularity (cervical mucus score) (human cervical mucus; [23]): 0
Ferning (cervical mucus score) (human cervical mucus; [23]): 0
Spinnbarkeit (cervical mucus score) (human cervical mucus; [23]): 0 (less than 1 cm)
Viscosity (cervical mucus score) (human cervical mucus; [23]): 2 ± .52
TOTAL cervical mucus score (human cervical mucus; [23]): 2.2
Cellularity (cervical mucus score) (human cervical mucus; [24]): 0
Ferning (cervical mucus score) (human cervical mucus; [24]): 0
Spinnbarkeit (cervical mucus score) (human cervical mucus; [24]): 1 ± .35
Viscosity (cervical mucus score) (human cervical mucus; [24]): 2 ± .25
TOTAL cervical mucus score (human cervical mucus; [24]): 2.15
Cellularity (cervical mucus score) (human cervical mucus; [25]): 0
Ferning (cervical mucus score) (human cervical mucus; [25]): 0
Spinnbarkiet (cervical mucus score) (human cervical mucus; [25]): 0 (less than 1 cm)
Viscosity (cervical mucus score) (human cervical mucus; [25]): 0
TOTAL cervical mucus score (human cervical mucus; [25]): 0.2
Cellularity (cervical mucus score) (human cervical mucus; [26]): 1 ± .53
Ferning (cervical mucus score) (human cervical mucus; [26]): 1 ± .53
Spinnbarkiet (cervical mucus score) (human cervical mucus; [26]): 1 ± .26
Viscosity (cervical mucus score) (human cervical mucus; [26]): 1 ± .69
TOTAL cervical mucus score (human cervical mucus; [26]): 4.3
Cellularity (cervical mucus score) (human cervical mucus; [27]): 1 ± .51
Ferning (cervical mucus score) (human cervical mucus; [27]): 1 ± .53
Spinnbarkeit (cervical mucus score) (human cervical mucus; [27]): 1 ± .26
Viscosity (cervical mucus score) (human cervical mucus; [27]): 2 ± .69
TOTAL cervical mucus score (human cervical mucus; [27]): 5.2
Cellularity (cervical mucus score) (human cervical mucus; [28]): 1 ± .51
Ferning (cervical mucus score) (human cervical mucus; [28]): 0
Spinnbarkeit (cervical mucus score) (human cervical mucus; [28]): 1 ± .26
Viscosity (cervical mucus score) (human cervical mucus; [28]): 1 ± .69
TOTAL cervical mucus score (human cervical mucus; [28]): 3.15
